From patent publication US9073892B2, “Indazolyl triazol derivatives” (Merck Serono S.A., priority 2010, dated 2015)
pIC50: −log10 of the molar value. Where a name gives a salt, the structure may show the parent alone.

What follows are compounds tested on T1, IRAK1/4 human (assay: IRAK1/4 phosphorylation IC50 (enzymatic assay, table 2)). Details: human IRAK1/4 phosphorylation.
T1 construct: fused on or other part: His tag and TEV cleavage site at the N-terminus
Assay type: biochemical
How it was run: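 His-TEV-tagged human IRAK-1 or IRAK-4 (IRAK-4 with STK1-biotin peptide) was incubated in 384-well plates with ATP and compounds in DMSO from 20 µM to 1 nM, with 2% DMSO controls. The buffer was Hepes pH7.0 50 mM with MgCl2, DTT, EGTA and BSA, and reactions ran 2 or 3 hours. Inhibition was reported as IC50.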

SMILES | pIC50
CN1CCC(NC(=O)c2ccc(-n3cc(-c4n[nH]c5ccccc45)nn3)cc2)CC1 [Example 116, 4-[4-(1H-indazol-3-yl)-1H-1,2,3-triazol-1-yl]-N-(1-methylpiperidin-4-yl)benzamide] | 5.30 to 6.00
O=C(c1ccc(-n2cc(-c3n[nH]c4ccccc34)nn2)cc1)N1CCOC(CO)C1 (centres unmarked) [Example 161] | 6.00 to 7.00
O=C(Nc1cnn(C2CCNC2)c1)c1ccc(-n2cc(-c3n[nH]c4ccccc34)nn2)cc1 (centres unmarked) [Example 169] | 6.00 to 7.00
N#CCCN1CCN(C(=O)c2ccc(-n3cc(-c4n[nH]c5ccccc45)nn3)cc2)CC1 [Example 57, 3-(4-(4-[4-(1H-indazol-3-yl)-1H-1,2,3-triazol-1-yl]benzoyl}piperazin-1-yl)propanenitrile] | 6.00 to 7.00
c1ccc2c(-c3cn(-c4ccc(N5CCOCC5)nc4)nn3)n[nH]c2c1 [Example 20, 3-[1-(6-morpholin-4-ylpyridin-3-yl)-1H-1,2,3-triazol-4-yl]-1H-indazole] | 5.30 to 6.00
c1ccc2c(-c3cn(-c4ccc([C@H]5C[C@H]6CC[C@@H](C5)N6C5CCCCC5)cc4)nn3)n[nH]c2c1 (single isomer, unassigned) [Example 152, 3-(1-{4-[(3-endo)-8-cyclohexyl-8-azabicyclo[3.2.1]oct-3-yl]phenyl}-1H-1,2,3-triazol-4-yl)-1H-indazole] | 6.00 to 7.00
CN1CCCC(Nc2ccc3[nH]nc(-c4cn(-c5ccc(C(=O)N6CCOCC6)cc5)nn4)c3c2)C1 (centres unmarked) [Example 148, N-(1-methylpiperidin-3-yl)-3-{1-[4-(morpholin-4-ylcarbonyl)phenyl]-1H-1,2,3-triazol-4-yl}-1H-indazol-5-amine] | > 7.00
O=C(c1ccc(-n2cc(-c3n[nH]c4ccc(Br)cc34)nn2)cc1)N1CCOCC1 [Example 122, 5-bromo-3-{1-[4-(morpholin-4-ylcarbonyl)phenyl]-1H-1,2,3-triazol-4-yl}-1H-indazole] | 6.00 to 7.00
COCCNC(=O)c1cccc(-n2cc(-c3n[nH]c4ccccc34)nn2)c1 [Example 65, 3-[4-(1H-indazol-3-yl)-1H-1,2,3-triazol-1-yl]-N-(2-methoxyethyl)benzamide] | 5.30 to 6.00
O=C(c1ccc(-n2cc(-c3n[nH]c4ccccc34)nn2)cc1)N1CCOC(CCO)C1 (centres unmarked) [Example 167] | 6.00 to 7.00
c1ccc2c(-c3cn(-c4cnn(CCN5CCOCC5)c4)nn3)n[nH]c2c1 [Example 180] | 6.00 to 7.00
CN(C)C1CCN(c2ccc3[nH]nc(-c4cn(-c5ccc(C(=O)N6CCOCC6)cc5)nn4)c3c2)C1 (centres unmarked) [Example 149, N,N-dimethyl-1-(3-{1-[4-(morpholin-4-ylcarbonyl)phenyl]-1H-1,2,3-triazol-4-yl}-1H-indazol-5-yl)pyrrolidin-3-amine] | > 7.00
C1=C(c2ccc(-n3cc(-c4n[nH]c5ccccc45)nn3)cc2)CCNC1 [Example 131, hydrochloride] | 6.00 to 7.00
Cc1ccc2c(-c3cn(-c4ccc(C(=O)N5CCOCC5)cc4)nn3)n[nH]c2c1 [Example 184] | > 7.00
NCc1ccc(-n2cc(-c3n[nH]c4ccccc34)nn2)cc1 [Example 12, 1-{4-[4-(1H-indazol-3-yl)-1H-1,2,3-triazol-1-yl]phenyl}methanamine] | 5.30 to 6.00
O=C(c1ccc(-n2cc(-c3n[nH]c4ccccc34)nn2)cc1)N1CCCC2(COC2)C1 [Example 165] | 6.00 to 7.00
Cc1ccc2c(-c3cn(-c4ccc([C@@H]5C[C@H]6CCC[C@@H](C5)N6C)cc4)nn3)n[nH]c2c1 [Example 274] | > 7.00

SMILES | pIC50
O=C1C[C@H](OCc2ccc3[nH]nc(-c4cn(-c5ccc(C(=O)N6CCOCC6)cc5)nn4)c3c2)CO1 [Example 154, (4S)-4-[(3-{1-[4-(morpholin-4-ylcarbonyl)phenyl]-1H-1,2,3-triazol-4-yl}-1H-indazol-5-yl)methoxy]dihydrofuran-2(3H)-one] | 6.00 to 7.00
CC(C)=Cc1ccc2[nH]nc(-c3cn(-c4ccc(C(=O)N5CCC(N(C)C)CC5)cc4)nn3)c2c1 [Example 138, N,N-dimethyl-1-(4-{4-[5-(2-methylprop-1-en-1-yl)-1H-indazol-3-yl]-1H-1,2,3-triazol-1-yl}benzoyl)piperidin-4-amine] | 6.00 to 7.00
CN1CCCC2(CCCN(C(=O)c3ccc(-n4cc(-c5n[nH]c6ccccc56)nn4)cc3)C2)C1=O (centres unmarked) [Example 163] | 6.00 to 7.00
CCN(CC)CCNC(=O)c1ccc(-n2cc(-c3n[nH]c4ccccc34)nn2)cc1 [Example 46, N-[2-(diethylamino)ethyl]-4-[4-(1H-indazol-3-yl)-1H-1,2,3-triazol-1-yl]benzamide] | 6.00 to 7.00
O=C(c1ccc(-n2cc(-c3n[nH]c4cccc(F)c34)nn2)cc1)N1CCOCC1 [Example 182] | 5.30 to 6.00
O=C(c1cccc(-n2cc(-c3n[nH]c4ccccc34)nn2)c1)N1CCCC(CN2CCCC2)C1 (centres unmarked) [Example 69, 3-[1-(3-{[3-(pyrrolidin-1-ylmethyl)piperidin-1-yl]carbonyl}phenyl)-1H-1,2,3-triazol-4-yl]-1H-indazole] | 5.30 to 6.00
COCCC1CN(C(=O)c2ccc(-n3cc(-c4n[nH]c5ccccc45)nn3)cc2)CCO1 (centres unmarked) [Example 168] | 6.00 to 7.00
OCc1ccc2[nH]nc(-c3cn(-c4ccc(CN5CCOCC5)cc4)nn3)c2c1 [Example 198] | 6.00 to 7.00
CN1CCC(n2cc(-n3cc(-c4n[nH]c5ccccc45)nn3)cn2)CC1 [Example 186] | > 7.00
O=C(c1ccc(-n2cc(-c3n[nH]c4ccc(Cn5nc(-c6ccc(O)cc6)ccc5=O)cc34)nn2)cc1)N1CCOCC1 [Example 144, 6-(4-hydroxyphenyl)-2-[(3-{1-[4-(morpholin-4-ylcarbonyl)phenyl]-1H-1,2,3-triazol-4-yl}-1H-indazol-5-yl)methyl]pyridazin-3(2H)-one] | > 7.00
CN1CCCC1CCNC(=O)c1ccc(-n2cc(-c3n[nH]c4ccccc34)nn2)cc1 (centres unmarked) [Example 90, 4-[4-(1H-indazol-3-yl)-1H-1,2,3-triazol-1-yl]-N-[2-(1-methylpyrrolidin-2-yl)ethyl]benzamide] | 6.00 to 7.00
COC(=O)c1ccc2[nH]nc(-c3cn(-c4ccc(CN5CCOCC5)cc4)nn3)c2c1 [Example 142, methyl 3-{1-[4-(morpholin-4-ylmethyl)phenyl]-1H-1,2,3-triazol-4-yl}-1H-indazole-5-carboxylate] | 6.00 to 7.00
CN1C2CCC1CC(n1cc(-n3cc(-c4n[nH]c5ccc(Cl)cc45)nn3)cn1)C2 (centres unmarked) [Example 227] | 6.00 to 7.00
O=c1ccc(-c2ccncc2)nn1Cc1ccc2[nH]nc(-c3cn(-c4ccc(CN5CCOCC5)cc4)nn3)c2c1 [Example 196] | > 7.00
CN(C)C1CCN(C(=O)c2ccc(-n3cc(-c4n[nH]c5ccc(C6=CCOCC6)cc45)nn3)cc2)CC1 [Example 173] | 6.00 to 7.00
O=C(c1ccc(-n2cc(-c3n[nH]c4cc(C#CCO)ccc34)nn2)cc1)N1CCOCC1 [Example 146, 3-(3-{1-[4-(morpholin-4-ylcarbonyl)phenyl]-1H-1,2,3-triazol-4-yl}-1H-indazol-6-yl)prop-2-yn-1-ol] | 6.00 to 7.00

Other lines, results leading:

pIC50 | SMILES
6.00 to 7.00 | O=C(c1ccc(-n2cc(-c3n[nH]c4ccc(NC5CCCOC5)cc34)nn2)cc1)N1CCOCC1 (centres unmarked) [Example 222]
6.00 to 7.00 | O=S1(=O)CCN(Cc2ccc(-n3cc(-c4n[nH]c5ccccc45)nn3)cc2)CC1 [Example 259]
> 7.00 | c1ccc2c(-c3cn(-c4ccc(C5CCCNCC5)cc4)nn3)n[nH]c2c1 (centres unmarked) [Example 269]
6.00 to 7.00 | Cc1nn(C)cc1-c1ccc(-n2cc(-c3n[nH]c4ccccc34)nn2)cc1 [Example 289]
6.00 to 7.00 | c1ccc2c(-c3cn(-c4ccc(-c5cnn(CCN6CCOCC6)c5)cc4)nn3)n[nH]c2c1 [Example 262]
6.00 to 7.00 | O=C(NC1CCOCC1)c1ccc2[nH]nc(-c3cn(-c4ccc(CN5CCOCC5)cc4)nn3)c2c1 [Example 228]
5.30 to 6.00 | CC1(C)CN(Cc2ccc(-n3cc(-c4n[nH]c5cc(F)ccc45)nn3)cc2)CCO1 [Example 283]
5.30 to 6.00 | FC(F)(F)c1ccc2c(-c3cn(-c4ccc(CN5CCOCC5)cc4)nn3)n[nH]c2c1 [Example 297]
6.00 to 7.00 | c1ccc2c(-c3cn(-c4ccc(C5CCN(CC6CCCO6)CC5)cc4)nn3)n[nH]c2c1 (centres unmarked) [Example 239]
6.00 to 7.00 | NC(=O)COc1ccc2c(-c3cn(-c4ccc(C(=O)N5CCOCC5)cc4)nn3)n[nH]c2c1 [Example 233]
6.00 to 7.00 | O=C(c1ccc(-n2cc(-c3n[nH]c4cc(O)ccc34)nn2)cc1)N1CCOCC1 [Example 235]
6.00 to 7.00 | CN1CCC(c2ccc(-n3cc(-c4n[nH]c5ccccc45)nn3)cc2)CC1 [Example 211]
6.00 to 7.00 | OC(CN1CCC(c2ccc(-n3cc(-c4n[nH]c5cc(F)ccc45)nn3)cc2)CC1)C(F)(F)F (centres unmarked) [Example 271]
> 7.00 | CN1CCC(Nc2ccc3[nH]nc(-c4cn(-c5ccc(C(=O)N6CCOCC6)cc5)nn4)c3c2)CC1 [Example 223]
6.00 to 7.00 | O=C(c1ccc2[nH]nc(-c3cn(-c4ccc(CN5CCOCC5)cc4)nn3)c2c1)N1CCC(c2ccncc2)CC1 [Example 236]
6.00 to 7.00 | C#Cc1ccc2c(-c3cn(-c4ccc(C(=O)N5CCOCC5)cc4)nn3)n[nH]c2c1 [Example 221]
6.00 to 7.00 | O=C(c1ccc(-n2cc(-c3n[nH]c4ccc(CNCc5cccc(O)c5)cc34)nn2)cc1)N1CCOCC1 [Example 295]
6.00 to 7.00 | O=S(=O)(c1ccc(-n2cc(-c3n[nH]c4ccccc34)nn2)cc1)N1CCOCC1 [Example 243]
6.00 to 7.00 | Cc1ccc2c(-c3cn(-c4ccc(CN5CCCCC56COC6)cc4)nn3)n[nH]c2c1 [Example 287]
5.30 to 6.00 | COCCOc1ccc2c(-c3cn(-c4ccc(C(=O)N5CCOCC5)cc4)nn3)n[nH]c2c1 [Example 234]
6.00 to 7.00 | O=C(c1ccc(-n2cc(-c3n[nH]c4cc(C(F)(F)F)ccc34)nn2)cc1)N1CCOCC1 [Example 296]
6.00 to 7.00 | O=C(c1ccc(-n2cc(-c3n[nH]c4ccc(N5CCCC(O)C5)cc34)nn2)cc1)N1CCOCC1 (centres unmarked) [Example 254]
5.30 to 6.00 | Cc1ccc2c(-c3cn(-c4ccc(C5CCN(CCC(F)(F)F)CC5)cc4)nn3)n[nH]c2c1 [Example 270]
